From US9592221B2, “Antibacterial agents: aryl myxopyronin derivatives” (priority 2012, dated 2017)
pIC50: −log10 of the molar value.

Columns and labels:
[1] = test system: methicillin-resistant Staphylococcus aureus (MRSA) strain BAA-1707 (USA-400; MW2); experiment: MIC, spiral gradient endpoint assay, MRSA BAA-1707; assay type: cell-based; details: Staphylococcus aureus; read-out: MIC S. aureus MRSA BAA-1707
[2] = test system: rifampin-resistant Staphylococcus aureus (RRSA) strain ATCC 12600-Rif (H526N); experiment: MIC, spiral gradient endpoint assay, RRSA 12600-Rif; assay type: cell-based; details: Staphylococcus aureus, ATCC12600; read-out: MIC S. aureus RRSA 12600-Rif
[3] = test system: Acinetobacter baumannii ATCC 19606; experiment: MIC, spiral gradient endpoint assay, A. baumannii; assay type: cell-based; details: ATCC19606; Acinetobacter baumannii ATCC 19606
[4] = test system: Escherichia coli D21f2tolC; experiment: MIC, spiral gradient endpoint assay, E. coli D21f2tolC; assay type: cell-based; details: Escherichia coli, D21F2TOLC, read-out: MIC E. coli D21f2toIC
[5] = test system: methicillin-resistant Staphylococcus aureus (MRSA) strain BAA-1717 (USA-300); experiment: MIC, spiral gradient endpoint assay, MRSA BAA-1717; assay type: cell-based; details: Staphylococcus aureus; read-out: MIC S. aureus MRSA BAA-1717
[6] = test system: Mycobacterium tuberculosis H37Rv; experiment: MIC, microplate Alamar Blue assay, M. tuberculosis; assay type: cell-based
[7] = molecular target: E. coli RNA polymerase σ^70 holoenzyme (Escherichia coli, UniProt P0A8T7+P0A8V2); experiment: Fluorescence-detected RNA polymerase assay, E. coli RNA polymerase; assay type: biochemical; details: read-out: IC50 E. coli RNAP
[8] = molecular target: M. tuberculosis RNA polymerase core enzyme, M. tuberculosis σ^A (Mycobacterium tuberculosis, UniProt P9WGY7+P9WGY9); experiment: Fluorescence-detected RNA polymerase assay, M. tuberculosis RNA polymerase; assay type: biochemical; details: read-out: IC50 M. tuberculosis RNAP
[9] = test system: Staphylococcus aureus ATCC 12600; experiment: MIC, spiral gradient endpoint assay, S. aureus ATCC 12600; assay type: cell-based; details: ATCC12600; Staphylococcus aureus ATCC 12600
[10] = test system: Burkholderia pseudomallei Human/Blood/OH/US/1994; experiment: microbe, parasite or virus in culture; assay type: cell-based; details: Burkholderia pseudomallei, read-out: MIC B. pseudomallei Human/Blood/OH
[11] = test system: Bacillus anthracis Vollum 1b; experiment: microbe, parasite or virus in culture; assay type: cell-based; details: Bacillus anthracis, VOLLUM1B, read-out: MIC B. anthracis Vollum-1b
Brucella melitensis 16M = experiment: microbe, parasite or virus in culture; assay type: cell-based; details: Brucella melitensis, 16M, read-out: MIC B. melitensis 16M
[12] = test system: Francisella tularensis SCHU4; experiment: microbe, parasite or virus in culture; assay type: cell-based; details: Francisella tularensis, SCHU4, read-out: MIC F. tularensis SCHU4
Burkholderia mallei CHN7 = experiment: microbe, parasite or virus in culture; assay type: cell-based; details: Burkholderia mallei, CHN7, read-out: MIC B. mallei CHN7
Yersinia pestis C092 = experiment: microbe, parasite or virus in culture; assay type: cell-based; details: Yersinia pestis, C092, read-out: MIC Y. pestis C092
[13] = molecular target: S. aureus RNA polymerase core enzyme, S. aureus σ^A (Staphylococcus aureus, UniProt P47768+Q2G0N5); experiment: Fluorescence-detected RNA polymerase assay, S. aureus RNA polymerase; assay type: biochemical; details: read-out: IC50 S. aureus RNAP

Chain of E. coli RNA polymerase σ^70 holoenzyme (P0A8T7 whole entry): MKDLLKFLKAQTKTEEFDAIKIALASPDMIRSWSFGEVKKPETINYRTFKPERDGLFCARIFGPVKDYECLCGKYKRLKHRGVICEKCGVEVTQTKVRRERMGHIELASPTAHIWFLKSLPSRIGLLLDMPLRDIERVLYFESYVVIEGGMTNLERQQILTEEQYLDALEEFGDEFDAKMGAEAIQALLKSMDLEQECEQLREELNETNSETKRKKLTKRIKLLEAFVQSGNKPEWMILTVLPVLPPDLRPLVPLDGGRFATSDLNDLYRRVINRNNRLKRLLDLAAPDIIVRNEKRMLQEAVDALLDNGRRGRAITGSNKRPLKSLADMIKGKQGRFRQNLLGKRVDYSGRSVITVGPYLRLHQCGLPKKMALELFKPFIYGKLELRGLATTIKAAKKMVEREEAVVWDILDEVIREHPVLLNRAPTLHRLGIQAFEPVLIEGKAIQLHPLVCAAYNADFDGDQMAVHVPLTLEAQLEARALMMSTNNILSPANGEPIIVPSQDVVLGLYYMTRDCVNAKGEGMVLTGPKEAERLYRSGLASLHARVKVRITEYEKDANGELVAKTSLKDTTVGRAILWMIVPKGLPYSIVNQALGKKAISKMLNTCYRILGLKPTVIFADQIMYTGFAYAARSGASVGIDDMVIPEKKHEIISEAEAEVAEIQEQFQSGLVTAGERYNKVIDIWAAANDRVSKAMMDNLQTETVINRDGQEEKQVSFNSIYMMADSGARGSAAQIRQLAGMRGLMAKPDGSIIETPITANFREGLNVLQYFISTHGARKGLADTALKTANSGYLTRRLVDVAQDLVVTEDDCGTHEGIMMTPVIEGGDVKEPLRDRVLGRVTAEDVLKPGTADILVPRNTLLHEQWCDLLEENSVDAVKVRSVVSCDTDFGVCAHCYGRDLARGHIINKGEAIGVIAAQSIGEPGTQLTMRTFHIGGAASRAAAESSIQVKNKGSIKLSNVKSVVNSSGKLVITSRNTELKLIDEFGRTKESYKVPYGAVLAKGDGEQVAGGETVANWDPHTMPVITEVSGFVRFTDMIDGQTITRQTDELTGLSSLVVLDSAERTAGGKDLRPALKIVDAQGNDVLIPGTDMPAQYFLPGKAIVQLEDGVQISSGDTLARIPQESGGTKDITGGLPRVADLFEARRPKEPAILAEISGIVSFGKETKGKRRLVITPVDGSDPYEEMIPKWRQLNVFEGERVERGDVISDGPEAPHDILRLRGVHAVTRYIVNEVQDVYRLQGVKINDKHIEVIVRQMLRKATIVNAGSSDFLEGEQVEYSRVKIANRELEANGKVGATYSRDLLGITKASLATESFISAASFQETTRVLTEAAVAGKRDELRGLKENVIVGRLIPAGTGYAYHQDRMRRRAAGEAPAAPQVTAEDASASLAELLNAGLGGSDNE
Chain of E. coli RNA polymerase σ^70 holoenzyme (P0A800 whole entry, further chain): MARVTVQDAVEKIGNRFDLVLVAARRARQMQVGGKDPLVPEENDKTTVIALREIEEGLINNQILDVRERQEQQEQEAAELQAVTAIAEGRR
Chain of E. coli RNA polymerase σ^70 holoenzyme (P0A8V2 whole entry): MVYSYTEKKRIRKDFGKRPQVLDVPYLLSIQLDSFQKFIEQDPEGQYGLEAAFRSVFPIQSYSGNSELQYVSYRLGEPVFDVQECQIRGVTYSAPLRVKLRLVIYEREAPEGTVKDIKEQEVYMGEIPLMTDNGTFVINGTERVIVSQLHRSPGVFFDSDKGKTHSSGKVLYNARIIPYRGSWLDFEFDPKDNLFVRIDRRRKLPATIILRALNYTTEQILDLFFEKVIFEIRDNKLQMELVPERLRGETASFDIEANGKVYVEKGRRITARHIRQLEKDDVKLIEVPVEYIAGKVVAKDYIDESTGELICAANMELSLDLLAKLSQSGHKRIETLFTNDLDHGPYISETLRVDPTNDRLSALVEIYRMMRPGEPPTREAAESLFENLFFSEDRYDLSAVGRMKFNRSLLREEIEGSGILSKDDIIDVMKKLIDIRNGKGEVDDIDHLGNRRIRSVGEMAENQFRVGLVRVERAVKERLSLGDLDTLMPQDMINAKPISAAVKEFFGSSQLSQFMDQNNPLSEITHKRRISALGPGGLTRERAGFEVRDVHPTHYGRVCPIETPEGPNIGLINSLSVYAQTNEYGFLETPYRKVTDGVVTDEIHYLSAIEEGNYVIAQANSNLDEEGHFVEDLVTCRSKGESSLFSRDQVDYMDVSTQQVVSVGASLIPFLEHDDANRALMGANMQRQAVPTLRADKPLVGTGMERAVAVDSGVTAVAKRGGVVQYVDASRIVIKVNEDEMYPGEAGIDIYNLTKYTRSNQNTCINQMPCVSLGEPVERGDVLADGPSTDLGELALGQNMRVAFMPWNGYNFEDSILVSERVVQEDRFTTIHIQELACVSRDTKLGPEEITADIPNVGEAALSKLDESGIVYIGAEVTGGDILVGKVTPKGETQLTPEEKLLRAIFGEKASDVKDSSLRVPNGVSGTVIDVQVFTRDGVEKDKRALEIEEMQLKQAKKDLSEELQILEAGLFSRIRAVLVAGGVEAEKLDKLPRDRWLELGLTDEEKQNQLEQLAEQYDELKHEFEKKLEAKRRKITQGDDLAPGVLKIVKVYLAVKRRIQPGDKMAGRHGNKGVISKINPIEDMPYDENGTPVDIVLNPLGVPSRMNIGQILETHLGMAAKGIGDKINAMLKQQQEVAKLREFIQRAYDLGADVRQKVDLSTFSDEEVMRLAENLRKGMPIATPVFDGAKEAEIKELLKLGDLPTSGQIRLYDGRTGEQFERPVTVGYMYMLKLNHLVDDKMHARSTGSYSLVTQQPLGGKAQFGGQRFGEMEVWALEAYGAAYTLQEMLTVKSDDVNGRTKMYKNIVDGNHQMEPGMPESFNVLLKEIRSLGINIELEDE
Chain of E. coli RNA polymerase σ^70 holoenzyme (P00579 whole entry, further chain): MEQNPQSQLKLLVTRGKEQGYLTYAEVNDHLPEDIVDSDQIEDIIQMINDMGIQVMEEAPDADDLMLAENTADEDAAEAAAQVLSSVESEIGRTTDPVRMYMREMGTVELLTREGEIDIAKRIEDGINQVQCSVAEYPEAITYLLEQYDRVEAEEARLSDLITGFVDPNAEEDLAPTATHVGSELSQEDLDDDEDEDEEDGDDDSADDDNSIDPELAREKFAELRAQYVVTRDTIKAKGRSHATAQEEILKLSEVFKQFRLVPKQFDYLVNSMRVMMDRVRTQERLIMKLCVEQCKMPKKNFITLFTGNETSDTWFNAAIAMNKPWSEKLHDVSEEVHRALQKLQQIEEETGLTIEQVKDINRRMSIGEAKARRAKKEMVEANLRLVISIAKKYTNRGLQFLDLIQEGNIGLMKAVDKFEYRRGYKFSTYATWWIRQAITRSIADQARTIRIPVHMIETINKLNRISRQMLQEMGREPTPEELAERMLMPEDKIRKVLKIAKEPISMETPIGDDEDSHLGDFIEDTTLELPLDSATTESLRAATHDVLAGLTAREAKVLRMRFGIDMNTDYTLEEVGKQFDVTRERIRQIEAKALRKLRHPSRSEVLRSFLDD
Chain of E. coli RNA polymerase σ^70 holoenzyme (P0A7Z4 whole entry, further chain): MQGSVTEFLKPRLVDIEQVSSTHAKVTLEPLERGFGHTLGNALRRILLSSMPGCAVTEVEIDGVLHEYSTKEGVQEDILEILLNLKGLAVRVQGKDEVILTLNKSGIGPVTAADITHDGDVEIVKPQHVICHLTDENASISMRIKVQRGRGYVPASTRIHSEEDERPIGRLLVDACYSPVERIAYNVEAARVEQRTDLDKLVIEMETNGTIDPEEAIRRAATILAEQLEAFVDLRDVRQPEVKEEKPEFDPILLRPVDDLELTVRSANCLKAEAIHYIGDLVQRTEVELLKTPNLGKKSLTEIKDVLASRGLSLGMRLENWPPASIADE

| SMILES | MIC [1] [µg/mL] | MIC [2] [µg/mL] | MIC [3] [µg/mL] | MIC [4] [µg/mL] | MIC [5] [µg/mL] | MIC [6] [µg/mL] | pIC50 [7] | pIC50 [8] | MIC [9] [µg/mL] | MIC [10] [µg/mL] | MIC [11] [µg/mL] | MIC (Brucella melitensis 16M) [µg/mL] | MIC [12] [µg/mL] | MIC (Burkholderia mallei CHN7) [µg/mL] | MIC (Yersinia pestis C092) [µg/mL] | pIC50 [13] |
| --- | --- | --- | --- | --- | --- | --- | --- | --- | --- | --- | --- | --- | --- | --- | --- | --- |
| COC(=O)N/C=C/CCC(C)c1cc(O)c(C(=O)C(C)=Cc2ccc(OC(C)C)s2)c(=O)o1 (mixture of isomers) [APY107, methyl ((1E)-5-(4-hydroxy-3-(3-(5-isopropoxythiophen-2-yl)-2-methylacryloyl)-2-oxo-2H-pyran-6-yl)hex-1-en-1-yl)carbamate] | 2 | 2 | > 40 | 0.1 | 2 | 10 | 7.70 | 6.40 | 2 | – | – | – | – | – | – | – |
| COC(=O)N/C=C/CCC(C)c1cc(O)c(C(=O)C(C)=Cc2ccc(CCC3CC3)s2)c(=O)o1 (mixture of isomers) [APY95, methyl ((1E)-5-(3-(3-(5-(2-cyclopropylethyl)thiophen-2-yl)-2-methylacryloyl)-4-hydroxy-2-oxo-2H-pyran-6-yl)hex-1-en-1-yl)carbamate] | 0.3 | 0.5 | 10 | 0.1 | 0.4 | 10 | 8.30 | 7.30 | 0.8 | – | – | – | – | – | – | – |
| CCCOCc1ccc(C=C(C)C(=O)c2c(O)cc(C(C)CC/C=C/NC(=O)OC)oc2=O)s1 (mixture of isomers) [APY109, methyl ((1E)-5-(4-hydroxy-3-(2-methyl-3-(5-(propoxymethyl)thiophen-2-yl)acryloyl)-2-oxo-2H-pyran-6-yl)hex-1-en-1-yl)carbamate] | 7 | 7 | > 40 | 0.2 | 7 | 30 | 7.10 | 6.10 | 3 | – | – | – | – | – | – | – |
| COC(=O)N/C=C/CCC(C)c1cc(O)c(C(=O)C(C)=Cc2ccc(CCC(C)C)cc2)c(=O)o1 (mixture of isomers) [APY73, methyl (E)-5-(4-hydroxy-5-((E/Z)-3-(4-isopentylphenyl)-2-methylacryloyl)-6-oxo-6H-pyran-2-yl)hex-1-enylcarbamate] | 1 | 2 | > 40 | 0.3 | 1 | – | 7.40 | – | 0.6 | 50 | 2 | 3 | 10 | 50 | – | – |
| CCCCc1ccc(C=C(C)C(=O)c2c(O)cc(C(C)CC/C=C/NC(=O)OC)oc2=O)cc1 (mixture of isomers) [APY41, methyl (E)-5-(3-((E/Z)-3-(4-butylphenyl)-2-methylacryloyl)-4-hydroxy-2-oxo-2H-pyran-6-yl)hex-1-enylcarbamate] | 0.6 | 0.9 | > 40 | < 0.2 | 0.6 | 3 | 8.10 | – | 0.8 | 10 | 2 | 0.8 | 6 | 6 | 30 | – |
| CCCCc1ccc2sc(C=C(C)C(=O)c3c(O)cc(C(C)CC/C=C/NC(=O)OC)oc3=O)cc2c1 (mixture of isomers) [APY26, methyl (E)-5-(3-((E/Z)-3-(5-butylbenzo[b]thiophen-2-yl)-2-methylacryloyl)-4-hydroxy-2-oxo-2H-pyran-6-yl)hex-1-enylcarbamate] | – | – | > 40 | 0.3 | – | 6 | 7.70 | 6.00 | > 40 | > 50 | 2 | 2 | 2 | 6 | > 50 | 6.70 |
| C=CCCCCc1ccc(C=C(C)C(=O)c2c(O)cc(C(C)CC/C=C/NC(=O)OC)oc2=O)s1 (mixture of isomers) [APY29, methyl (E)-5-(3-((E/Z)-3-(5-(hex-5-enyl)thiophen-2-yl)-2-methylacryloyl)-4-hydroxy-2-oxo-2H-pyran-6-yl)hex-1-enylcarbamate] | – | – | 30 | 0.3 | – | 30 | 7.40 | 6.30 | 4 | 10 | 3 | 0.8 | 10 | 3 | 10 | 7.05 |
| CCCCc1ccc2oc(C=C(C)C(=O)c3c(O)cc(C(C)CC/C=C/NC(=O)OC)oc3=O)cc2c1 (mixture of isomers) [APY25, methyl (E)-5-(3-((E/Z)-3-(5-butylbenzofuran-2-yl)-2-methylacryloyl)-4-hydroxy-2-oxo-2H-pyran-6-yl)hex-1-enylcarbamate] | – | – | > 40 | 0.3 | – | 6 | 8.00 | 6.22 | 3 | 6 | 0.2 | 0.8 | 3 | 2 | 30 | 7.15 |
| CCCCCCc1csc(C=C(C)C(=O)c2c(O)cc(C(C)CC/C=C/NC(=O)OC)oc2=O)c1C (mixture of isomers) [APY27, methyl (E)-5-(3-((E/Z)-3-(4-hexyl-3-methylthiophen-2-yl)-2-methylacryloyl)-4-hydroxy-2-oxo-2H-pyran-6-yl)hex-1-enylcarbamate] | – | – | 20 | 0.3 | – | 10 | 8.00 | 6.00 | 6 | 50 | 3 | 2 | 3 | 6 | > 50 | 7.00 |
| COC(=O)N/C=C/CCC(C)c1cc(O)c(C(=O)C(C)=Cc2ccc(OC(C)C)cc2)c(=O)o1 (mixture of isomers) [APY66, methyl (E)-5-(4-hydroxy-5-((E/Z)-3-(4-isopropoxyphenyl)-2-methylacryloyl)-6-oxo-6H-pyran-2-yl)hex-1-enylcarbamate] | 2 | 3 | > 40 | 0.8 | 2 | 6 | 6.00 | – | 2 | > 50 | 10 | 10 | > 50 | > 50 | – | – |
| CCCCCCc1ccc(C=C(C)C(=O)c2c(O)cc(C(C)CC/C=C/NC(=O)OC)oc2=O)cc1 (mixture of isomers) [APY33, methyl (E)-5-(3-((E/Z)-3-(4-hexylphenyl)-2-methylacryloyl)-4-hydroxy-2-oxo-2H-pyran-6-yl)hex-1-enylcarbamate] | – | – | 20 | 0.3 | – | 6 | 8.10 | 6.40 | 2 | 6 | 2 | 0.4 | 3 | 2 | 6 | 8.00 |
| CCCCCCc1ccc2oc(C=C(C)C(=O)c3c(O)cc(C(C)CC/C=C/NC(=O)OC)oc3=O)cc2c1 (mixture of isomers) [APY20, methyl (E)-5-(3-((E/Z)-3-(5-hexylbenzofuran-2-yl)-2-methylacryloyl)-4-hydroxy-2-oxo-2H-pyran-6-yl)hex-1-enylcarbamate] | – | – | > 40 | 0.3 | – | 6 | 8.40 | 6.52 | > 40 | > 50 | 2 | 0.8 | 0.8 | 2 | > 50 | 7.70 |
